Measurements taken from patent US6914045B2, “Glycopeptide antibiotics” (Wyeth Holdings Corporation, priority 2001, dated 2005).
Converted amounts (≈) assume the structure as drawn.

Experiments:
Assay in all cases: in vitro antibacterial evaluation, MIC by broth dilution
Type in all cases: cell-based
[1] = test system: Escherichia coli
How it was run: (§1)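 Following National Committee for Clinical Laboratory Standards recommendations (M7-A2), susceptibility was measured by dilution in Muller-Hinton II […]. Bacteria were seeded at 5×10^5 CFU/mL against compound concentrations from 64 down to 0.06 μg/mL.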

[2] = test system: Streptococcus sp.; conditions: broth dilution, 18 hours at 35° C.; for MIC Streptococcus pneumoniae (ATCC 6301): strain ATCC 6301; for MIC Streptococcus pneumoniae (GC 1894): strain GC 1894; for MIC Streptococcus pyogenes (GC 4563): strain GC 4563; for MIC Streptococcus agalactiae (GC 4564): strain GC 4564; for MIC Streptococcus pneumoniae (GC 4565): strain GC 4565
How it was run: as §1

[3] = test system: Enterococcus sp.; conditions: broth dilution, 18 hours at 35° C.; for MIC Enterococcus faecalis (ATCC 29212): strain ATCC 29212; for MIC Enterococcus faecalis (GC 2242): strain GC 2242; for MIC Enterococcus faecium (GC 2243): strain GC 2243; for MIC Enterococcus faecalis (GC 2691): strain GC 2691; for MIC Enterococcus faecalis (GC 3059): strain GC 3059; for MIC Enterococcus faecalis (GC 4552): strain GC 4552; for MIC Enterococcus faecalis (GC 4553): strain GC 4553; for MIC Enterococcus faecalis (GC 4554): strain GC 4554; for MIC Enterococcus faecium (GC 4556): strain GC 4556; for MIC Enterococcus faecium (GC 4557): strain GC 4557; for MIC Enterococcus avium (GC 4558): strain GC 4558; for MIC Enterococcus faecalis (GC 6189): strain GC 6189
How it was run: as §1

[4] = test system: Staphylococcus sp.; conditions: broth dilution, 18 hours at 35° C.; for MIC Staphylococcus aureus (GC 1131): strain GC 1131
How it was run: as §1

Question: For `COc1cc(C2OCC3OC(OC4C(CO)OC(Oc5ccc(CC6NC(=O)C(C(C)c7ccccc7)NC(=O)CNC(=O)C(CO)NC(=O)C(C(O)C7CNC(=N)N7C7OC(CO)C(O)C(O)C7O)NC(=O)C(C(O)C7CNC(=N)N7)NC6=O)cc5)C(O)C4O)C(O)C(O)C3O2)cc([N+](=O)[O-])c1O` (centres unmarked) [Example 169], which “MIC Escherichia coli (ATCC 25922)” value ([1]; strain ATCC 25922, 18 hours at 35° C.) is on record?
Answer: >64 mg/L

Question: What about the “MIC Escherichia coli (GC 4559)” value ([1]; strain GC 4559, 18 hours at 35° C.) of the same molecule?
Answer: >64 mg/L

Question: What about the “MIC Escherichia coli (GC 4560)” value ([1]; strain GC 4560, 18 hours at 35° C.) of the same molecule?
Answer: 8 mg/L (≈ 5.43 µM)

Question: What about the “MIC Streptococcus pneumoniae (ATCC 6301)” value ([2]; inoculum 5×10^5 CFU/mL) of the same molecule?
Answer: 8 mg/L (≈ 5.43 µM)

Question: And the “MIC Streptococcus pneumoniae (GC 1894)” value ([2]; inoculum 5×10^5 CFU/mL)?
Answer: 8 mg/L (≈ 5.43 µM)

Question: And the “MIC Streptococcus pyogenes (GC 4563)” value ([2]; inoculum 5×10^5 CFU/mL)?
Answer: 16 mg/L (≈ 10.9 µM)

Question: What about the “MIC Streptococcus agalactiae (GC 4564)” value ([2]; inoculum 5×10^5 CFU/mL) of the same molecule?
Answer: 32 mg/L (≈ 21.7 µM)

Question: What about the “MIC Streptococcus pneumoniae (GC 4565)” value ([2]; inoculum 5×10^5 CFU/mL) of the same molecule?
Answer: 8 mg/L (≈ 5.43 µM)

Question: What about the “MIC Streptococcus pneumoniae (ATCC 6301)” value [2] of the same molecule?
Answer: 8 mg/L (≈ 5.43 µM)

Question: What about the “MIC Streptococcus pneumoniae (GC 1894)” value [2] of the same molecule?
Answer: 8 mg/L (≈ 5.43 µM)

Question: What about the “MIC Streptococcus pyogenes (GC 4563)” value [2] of the same molecule?
Answer: 16 mg/L (≈ 10.9 µM)

Question: And the “MIC Streptococcus agalactiae (GC 4564)” value [2]?
Answer: 32 mg/L (≈ 21.7 µM)

Question: And the “MIC Streptococcus pneumoniae (GC 4565)” value [2]?
Answer: 8 mg/L (≈ 5.43 µM)

Question: And the “MIC Enterococcus faecalis (ATCC 29212)” value ([3]; inoculum 5×10^5 CFU/mL)?
Answer: >64 mg/L

Question: And the “MIC Enterococcus faecalis (GC 2242)” value ([3]; inoculum 5×10^5 CFU/mL)?
Answer: > 64 mg/L

Question: And the “MIC Enterococcus faecium (GC 2243)” value ([3]; inoculum 5×10^5 CFU/mL)?
Answer: >64 mg/L

Question: And the “MIC Enterococcus faecalis (GC 2691)” value ([3]; inoculum 5×10^5 CFU/mL)?
Answer: >64 mg/L

Question: What about the “MIC Enterococcus faecalis (GC 3059)” value ([3]; inoculum 5×10^5 CFU/mL) of the same molecule?
Answer: >64 mg/L

Question: And the “MIC Enterococcus faecalis (GC 4552)” value ([3]; inoculum 5×10^5 CFU/mL)?
Answer: >64 mg/L

Question: What about the “MIC Enterococcus faecalis (GC 4553)” value ([3]; inoculum 5×10^5 CFU/mL) of the same molecule?
Answer: >64 mg/L

Question: What about the “MIC Enterococcus faecalis (GC 4554)” value ([3]; inoculum 5×10^5 CFU/mL) of the same molecule?
Answer: >64 mg/L

Question: What about the “MIC Enterococcus faecium (GC 4556)” value ([3]; inoculum 5×10^5 CFU/mL) of the same molecule?
Answer: >64 mg/L

Question: And the “MIC Enterococcus faecium (GC 4557)” value ([3]; inoculum 5×10^5 CFU/mL)?
Answer: 32 mg/L (≈ 21.7 µM)

Question: And the “MIC Enterococcus avium (GC 4558)” value ([3]; inoculum 5×10^5 CFU/mL)?
Answer: >64 mg/L

Question: What about the “MIC Enterococcus faecalis (GC 6189)” value ([3]; inoculum 5×10^5 CFU/mL) of the same molecule?
Answer: >64 mg/L

Question: And the “MIC Enterococcus faecalis (ATCC 29212)” value [3]?
Answer: >64 mg/L

Question: And the “MIC Enterococcus faecalis (GC 2242)” value [3]?
Answer: >64 mg/L

Question: What about the “MIC Enterococcus faecium (GC 2243)” value [3] of the same molecule?
Answer: >64 mg/L

Question: And the “MIC Enterococcus faecalis (GC 2691)” value [3]?
Answer: >64 mg/L

Question: What about the “MIC Enterococcus faecalis (GC 3059)” value [3] of the same molecule?
Answer: >64 mg/L

Question: What about the “MIC Enterococcus faecalis (GC 4552)” value [3] of the same molecule?
Answer: >64 mg/L

Question: And the “MIC Enterococcus faecalis (GC 4553)” value [3]?
Answer: >64 mg/L

Question: And the “MIC Enterococcus faecalis (GC 4554)” value [3]?
Answer: >64 mg/L

Question: What about the “MIC Enterococcus faecium (GC 4556)” value [3] of the same molecule?
Answer: >64 mg/L

Question: What about the “MIC Enterococcus faecium (GC 4557)” value [3] of the same molecule?
Answer: 32 mg/L (≈ 21.7 µM)

Question: What about the “MIC Enterococcus avium (GC 4558)” value [3] of the same molecule?
Answer: >64 mg/L

Question: And the “MIC Enterococcus faecalis (GC 6189)” value [3]?
Answer: >64 mg/L

Question: What about the “MIC Staphylococcus aureus (GC 1131)” value ([4]; inoculum 5×10^5 CFU/mL) of the same molecule?
Answer: 32 mg/L (≈ 21.7 µM)

Question: What about the “MIC Staphylococcus aureus (ATCC 29213)” value ([4]; strain ATCC 29213) of the same molecule?
Answer: 32 mg/L (≈ 21.7 µM)

Question: What about the “MIC Staphylococcus aureus (GC 1131)” value [4] of the same molecule?
Answer: 32 mg/L (≈ 21.7 µM)

Question: What about the “MIC Staphylococcus aureus (GC 3051)” value ([4]; strain GC 3051) of the same molecule?
Answer: 32 mg/L (≈ 21.7 µM)

Question: What about the “MIC Staphylococcus aureus (GC 3053)” value ([4]; strain GC 3053) of the same molecule?
Answer: >64 mg/L

Question: And the “MIC Staphylococcus aureus (GC 4541)” value ([4]; strain GC 4541)?
Answer: 32 mg/L (≈ 21.7 µM)

Question: And the “MIC Staphylococcus aureus (GC 4542)” value ([4]; strain GC 4542)?
Answer: 32 mg/L (≈ 21.7 µM)

Question: What about the “MIC Staphylococcus aureus-SMITH (GC 4543)” value ([4]; strain GC 4543) of the same molecule?
Answer: 32 mg/L (≈ 21.7 µM)

Question: And the “MIC Staphylococcus aureus (GC 4544)” value ([4]; strain GC 4544)?
Answer: 32 mg/L (≈ 21.7 µM)

Question: What about the “MIC Staphylococcus aureus (GC 4545)” value ([4]; strain GC 4545) of the same molecule?
Answer: 32 mg/L (≈ 21.7 µM)

Question: What about the “MIC Staphylococcus haemolyticus (GC 4546)” value ([4]; strain GC 4546) of the same molecule?
Answer: 32 mg/L (≈ 21.7 µM)

Question: What about the “MIC Coagulase Negative Staphylococcus (GC 4547)” value ([4]; strain GC 4547) of the same molecule?
Answer: 32 mg/L (≈ 21.7 µM)

Question: And the “MIC Coagulase Negative Staphylococcus (GC 4548)” value ([4]; strain GC 4548)?
Answer: 32 mg/L (≈ 21.7 µM)

Question: What about the “MIC Coagulase Negative Staphylococcus (GC 4549)” value ([4]; strain GC 4549) of the same molecule?
Answer: 16 mg/L (≈ 10.9 µM)

Question: What about the “MIC Coagulase Negative Staphylococcus (GC 4551)” value ([4]; strain GC 4551) of the same molecule?
Answer: >64 mg/L

Question: And the “MIC Coagulase Negative Staphylococcus (GC 6257)” value ([4]; strain GC 6257)?
Answer: 8 mg/L (≈ 5.43 µM)
